The source of these data is patent US20100240642A1, “1H-Indole-2-Carboxylic Acid Derivatives Useful As PPAR Modulators” (SMITHKLINE BEECHAM CORPORATION, priority 2006, published 2010).

The first experiment concerns the target T1, hPPARγ receptor (Homo sapiens, UniProt P37231).
T1 construct: expressed in transfected cells; host or cells: CV-1 (African Green Monkey kidney, ATCC CCL-70)
T1 sequence (P37231 172-475 isoform P37231-2): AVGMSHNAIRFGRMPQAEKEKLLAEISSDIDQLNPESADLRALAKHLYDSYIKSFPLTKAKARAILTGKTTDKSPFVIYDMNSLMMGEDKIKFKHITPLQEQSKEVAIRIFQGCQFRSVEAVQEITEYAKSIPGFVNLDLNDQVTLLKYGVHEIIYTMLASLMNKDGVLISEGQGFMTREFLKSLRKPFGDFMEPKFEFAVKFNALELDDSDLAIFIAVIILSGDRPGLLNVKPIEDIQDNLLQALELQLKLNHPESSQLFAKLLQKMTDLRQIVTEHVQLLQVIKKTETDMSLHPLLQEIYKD
The experiment can be described thus: PPARγ Cell-based luciferase assay. The note with it: CV-1, read-out: agonism of the hPPARγ receptor (activation relative to full agonist rosiglitazone). The source says: Plasmids—PCR primers containing Kpnl and BamHI restriction sites were used to amplify PPARγ ligand binding domain (LBD) fragment (172-475) from a full-length human clone. The LBD fragment was ligated into the multiple cloning site of pFA-CMV (Stratagene). The resulting construct (pFA-CMV-GAL4-hPPARγLBD carried a fusion of the LBD with the yeast-derived GAL4 DNA-binding domain under the control of the CMV immediate early promoter. Reporter construct UAStkLuc carries a single 17 bp (CGGAGTACTGTCCTCCG) upstream activating sequence (UAS), the tk minimal promoter, and the firefly luciferase gene. The integrity of each construct was confirmed by diagnostic restriction digestion and by sequencing. Plasmid DNA was prepared using Qiagen Maxi-Prep kits.
PPARγ Cell-based luciferase assay—African Green Monkey kidney cell line CV-1 (ATCC CCL-70) was maintained in Dulbecco's Modified Eagle's Medium (D-MEM) containing 10% fetal bovine serum, 2 mM glutamine, and 1% penicillin/streptomycin (pen/strep). In preparation for luciferase assays, CV-1 cells were grown in charcoal-stripped cell medium containing D-MEM/F-12 medium supplemented with 5% or 3% dextran-treated/charcoal-stripped (CS) fetal bovine serum, 2 mM glutamine, with or without 1% pen/strep, as described below. CS fetal bovine serum was purchased from Hyclone; all other cell culture reagents were from Gibco.
The luciferase protocol is a multi-day procedure. On day 1, confluent cells in maintenance medium were subcultured 1:10 into T-175 cm^2 flasks containing 50 mL of 3% CS medium with pen/strep. These flasks were allowed to incubate at 5% CO2 and 37° C. for 72 hours.
Cells were harvested by trypsinization and then transfected using FuGENE (Roche) according to the manufacturer's specifications. Briefly, each transfection contained 0.55 μg pFA_CMV_GAL4_hPPARγ_LBD plasmid, 10.9 μg UAStkLUC, and 24 μg pBluescript (carrier DNA). Plasmid DNA was mixed with FuGENE in OptiMEM-1 medium and incubated for 30 min at room temperature. During this incubation, cells were harvested into 3% CS medium without pen-strep and dispensed at 14 million cells per T-175 cm^2 flask. Transfection mixes were added to the flasks and incubated overnight at 5% CO2 and 37° C.
Transfected cells were added to 384-well plates containing pharmacological agents. Rosiglitazone standard was reconstituted in DMSO at 1 mM. For 11-point dose-response experiments, the compounds were 3-fold serially diluted in DMSO and then stamped to 384-well assay plates (NUNC, catalog #164564) at 0.5 μL/well using a Beckman FX. DMSO and agonist control compound Rosiglitazone (1 mM) were each stamped at 0.5 μL/well to columns 23 and 24, respectively, of the 384-well plates. Transfected cells were harvested in 5% CS medium with pen/strep and dispensed at 10,000 cells/well (50 μL) onto the prepared 384-well compound plates using a Titertek Multidrop. Following overnight incubation at 5% CO2 and 37° C., Steady-Glo reagent (Promega) was added to the assay plates using a Multidrop. Plates were incubated for 10 min to ensure complete cell lysis and read in a ViewLux (PerkinElmer). […] Partial agonism is defined here as 20-80% activation (relative to full agonist rosiglitazone) at concentrations of 10^−6 M or less.
For `COCCOc1cc(Cn2c(C(=O)O)c(-c3ccc(C(C)(C)C)cc3)c3ccccc32)cc(OC(=O)N2CCNC2=O)c1` [Example 53, 3-[4-(1,1-dimethylethyl)phenyl]-1-[(3-{[2-(methyloxy)ethyl]oxy}-5-{[(2-oxo-1-imidazolidinyl)carbonyl]oxy}phenyl)methyl]-1H-indole-2-carboxylic acid], the Emax was in the range of 20 to 80%. Take `COCCOc1cc(Cn2c(C(=O)O)c(-c3ccc(C(C)(C)C)cc3)c3ccccc32)cc(OC(=O)N2CCN(C)CC2)c1` [Example 50, 3-[4-(1,1-dimethylethyl)phenyl]-1-[(3-{[2-(methyloxy)ethyl]oxy}-5-{[(4-methyl-1-piperazinyl)carbonyl]oxy}phenyl)methyl]-1H-indole-2-carboxylic acid]: the Emax was in the range of 20 to 80%.

The same experiment, now with this note: CV-1 cells transfected with GAL4-hPPARγ LBD and UAStkLuc; at concentrations of 10^−6 M or less; read-out: agonism of the hPPARγ receptor (activation relative to full agonist rosiglitazone).
Consider `CC(C)(C)c1ccc(-c2c(C(=O)O)n(Cc3cc(OCc4ccccc4)cc(-c4ccc(C(=O)O)cc4)c3)c3ccccc23)cc1` [Example 19, 1-({4′-carboxy-5-[(phenylmethyl)oxy]-3-biphenylyl}methyl)-3-[4-(1,1-dimethylethyl)phenyl]-1H-indole-2-carboxylic acid], for which the Emax was in the range of 20 to 80%. Same read-out and setting: to `COCCOc1cc(Cn2c(C(=O)O)c(-c3ccc(C(C)(C)C)cc3)c3ccccc32)cc(C(F)(F)F)c1` [Example 64, 3-[4-(1,1-dimethylethyl)phenyl]-1-{[3-{[2-(methyloxy)ethyl]oxy}-5-(trifluoromethyl)phenyl]methyl}-1H-indole-2-carboxylic acid] belongs 20 to 80%; to `CC(C)(C)c1ccc(-c2c(C(=O)O)n(Cc3cccc(N4CCS(=O)(=O)CC4)c3)c3ccccc23)cc1` [Example 45, 3-[4-(1,1-dimethylethyl)phenyl]-1-{[3-(1,1-dioxido-4-thiomorpholinyl)phenyl]methyl}-1H-indole-2-carboxylic acid], 20 to 80%. Still for that read-out and setting: to `CC(C)CCOc1cc(Cn2c(C(=O)O)c(-c3ccc(C(C)(C)C)cc3)c3ccccc32)cc(OCC2CC2)c1` [Example 6, 1-({3-[(cyclopropylmethyl)oxy]-5-[(3-methylbutyl)oxy]phenyl}methyl)-3-[4-(1,1-dimethylethyl)phenyl]-1H-indole-2-carboxylic acid] belongs 20 to 80%; to `COCCOc1cc(Cn2c(C(=O)O)c(Oc3ccc(C(C)(C)C)cc3)c3ccccc32)cc(OCCOC)c1` [Example 61, 1-[(3,5-bis{[2-(methyloxy)ethyl]oxy}phenyl)methyl]-3-{[4-(1,1-dimethylethyl)phenyl]oxy}-1H-indole-2-carboxylic acid], 20 to 80%. On to `COc1cc(Cn2c(C(=O)O)c(-c3ccc(C(C)(C)C)cc3)c3ccccc32)cc(OCC2CC2)c1` [Example 4, 1-{[3-[(cyclopropylmethyl)oxy]-5-(methyloxy)phenyl]methyl}-3-[4-(1,1-dimethylethyl)phenyl]-1H-indole-2-carboxylic acid], for which the Emax was 20 to 80%. As to `CC(C)(C)c1ccc(-c2c(C(=O)O)n(Cc3cc(OCCN4CCCC4)cc(OCC4CC4)c3)c3ccccc23)cc1` [Example 41, 1-[(3-[(cyclopropylmethyl)oxy]-5-{[2-(1-pyrrolidinyl)ethyl]oxy}phenyl)methyl]-3-[4-(1,1-dimethylethyl)phenyl]-1H-indole-2-carboxylic acid], the Emax lay in the range of 20 to 80%. On the same count and under the same terms, to `Cc1ccc(-c2ccc(O)cc2)cc1Cn1c(C(=O)O)c(-c2ccc(C(C)(C)C)cc2)c2ccccc21` [Example 10, 3-[4-(1,1-dimethylethyl)phenyl]-1-[(4′-hydroxy-4-methyl-3-biphenylyl)methyl]-1H-indole-2-carboxylic acid] belongs 20 to 80%.

On to `COCCOc1cc(Cn2c(C(=O)O)c(-c3cc4ccccc4o3)c3ccccc32)cc(OCCOC)c1` [Example 60, 3-(1-benzofuran-2-yl)-1-[(3,5-bis{[2-(methyloxy)ethyl]oxy}phenyl)methyl]-1H-indole-2-carboxylic acid], for which the Emax fell in the range of 20 to 80%. On to `CC(C)OC(=O)N1CCN(c2cccc(Cn3c(C(=O)O)c(-c4ccc(C(C)(C)C)cc4)c4ccccc43)c2)CC1` [Example 47, 3-[4-(1,1-dimethylethyl)phenyl]-1-{[3-(4-{[(1-methylethyl)oxy]carbonyl}-1-piperazinyl)phenyl]methyl}-1H-indole-2-carboxylic acid], for which the Emax lay in the range of 20 to 80%.

In the case of `CC(C)(C)c1ccc(-c2c(C(=O)O)n(Cc3cc(OCc4ccccc4)cc(OCC4CC4)c3)c3ccccc23)cc1` [Example 1, 1-({3-[(cyclopropylmethyl)oxy]-5-[(phenylmethyl)oxy]phenyl}methyl)-3-[4-(1,1-dimethylethyl)phenyl]-1H-indole-2-carboxylic acid], the Emax fell in the range of 20 to 80%. Consider `COc1ccc(-c2c(C(=O)O)n(Cc3cc(-c4ccc(C(=O)O)cc4)ccc3C)c3ccccc23)cn1` [Example 21, 1-[(4′-carboxy-4-methyl-3-biphenylyl)methyl]-3-[6-(methyloxy)-3-pyridinyl]-1H-indole-2-carboxylic acid], for which the Emax is 20 to 80%.

For `Cc1ccc(-c2cccc(C(=O)NCCc3cccs3)c2)cc1Cn1c(C(=O)O)c(-c2ccc(C(C)(C)C)cc2)c2ccccc21` [Example 31], the Emax lay in the range of 20 to 80%.

As for `COCCOc1cc(Cn2c(C(=O)O)c(-c3ccc(C(C)(C)C)cc3)c3ccccc32)cc(OCCOC)c1` [Example 66, 1-[(3,5-bis{[2-(methyloxy)ethyl]oxy}phenyl)methyl]-3-[4-(1,1-dimethylethyl)phenyl]-1H-indole-2-carboxylic acid], the Emax was in the range of 20 to 80%. For the compound `COCCOc1cc(Cn2c(C(=O)O)c(-c3ccc(C(C)(C)C)cc3)c3ccccc32)cc(OC(=O)N2CCCCC2)c1` [Example 51, 3-[4-(1,1-dimethylethyl)phenyl]-1-({3-{[2-(methyloxy)ethyl]oxy}-5-[(1-piperidinylcarbonyl)oxy]phenyl}methyl)-1H-indole-2-carboxylic acid], the Emax was in the range of 20 to 80%. On the same count and under the same terms, to `CCOC(=O)N1CCN(c2cccc(Cn3c(C(=O)O)c(-c4ccc(C(C)(C)C)cc4)c4ccccc43)c2)CC1` [Example 46, 3-[4-(1,1-dimethylethyl)phenyl]-1-[(3-{4-[(ethyloxy)carbonyl]-1-piperazinyl}phenyl)methyl]-1H-indole-2-carboxylic acid] belongs 20 to 80%; to `CC(C)(C)c1ccc(-c2c(C(=O)O)n(Cc3cccc(N4CCSCC4)c3)c3ccccc23)cc1` [Example 44, 3-[4-(1,1-dimethylethyl)phenyl]-1-{[3-(4-thiomorpholinyl)phenyl]methyl}-1H-indole-2-carboxylic acid], 20 to 80%. `CSc1cccc(-c2ccc(C)c(Cn3c(C(=O)O)c(-c4ccc(C(C)(C)C)cc4)c4ccccc43)c2)c1` [Example 17, 3-[4-(1,1-dimethylethyl)phenyl]-1-{[4-methyl-3′-(methylthio)-3-biphenylyl]methyl}-1H-indole-2-carboxylic acid]: the Emax lay within 20 to 80%.
